Laboratory results as given in patent US20260207602A1, “EGFR INHIBITORS” (Blueprint Medicines Corporation, priority 2022, published 2026).

Columns and labels:
EGFR (d746-750) = target: T1, EGFR (d746-750) (Homo sapiens, UniProt P00533, DEL746-750); experiment: Biochemical EGFR inhibition assay (Caliper mobility shift), EGFR (d746-750); conditions: biochemical Caliper mobility shift assay, EGFR Exon 19-del enzyme; read-out: Enz EGFR Exon 19-del IC50
T1 construct: purchased SignalChem E10-122JG
Summary of the method: (§1)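 Kinase activity measured as phosphorylation of 2.5 µM 5-FAM-labelled peptide substrate in 100 mM HEPES pH 7.5, 10 mM MgCl2, 0.015% Brij-35, 1 mM DTT, 1.0% DMSO, at 1.0 mM ATP or ATP Km. Run at 25 °C to 10–20% conversion, stopped with EDTA; product resolved by mobility shift, apparent IC50 from percent activity vs log concentration.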

[1] = target: intracellular phosphorylation of EGFR (Tyr1068) in PC-9 cells (Homo sapiens, UniProt P00533, DEL746-750); experiment: PC-9 pEGFR AlphaLISA assay; format: cell-based; conditions: 4 hours incubation, read-out: Phos EGFR PC9 IC50
Summary of the method: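 PC-9 cells (EGFR del746-750) in phenol-free DMEM/10% FBS, adhered overnight, then exposed to 10-point 4-fold compound dilutions for 4 h at 37 °C. Lysates assayed for pEGFR Tyr1068 by AlphaLISA SureFire Ultra; IC50 from percent pEGFR inhibition vs log concentration.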

EGFR L858R = target: T2, EGFR L858R (Homo sapiens, UniProt P00533, L858R); experiment: Biochemical EGFR inhibition assay (Caliper mobility shift), EGFR L858R; conditions: biochemical Caliper mobility shift assay, EGFR L858R enzyme; read-out: Enz EGFR L858R IC50
T2 construct: purchased SignalChem E10-122BG
Summary of the method: as §1

T1 sequence (P00533 with tags, fused parts or gaps DEL746-750 limits assumed): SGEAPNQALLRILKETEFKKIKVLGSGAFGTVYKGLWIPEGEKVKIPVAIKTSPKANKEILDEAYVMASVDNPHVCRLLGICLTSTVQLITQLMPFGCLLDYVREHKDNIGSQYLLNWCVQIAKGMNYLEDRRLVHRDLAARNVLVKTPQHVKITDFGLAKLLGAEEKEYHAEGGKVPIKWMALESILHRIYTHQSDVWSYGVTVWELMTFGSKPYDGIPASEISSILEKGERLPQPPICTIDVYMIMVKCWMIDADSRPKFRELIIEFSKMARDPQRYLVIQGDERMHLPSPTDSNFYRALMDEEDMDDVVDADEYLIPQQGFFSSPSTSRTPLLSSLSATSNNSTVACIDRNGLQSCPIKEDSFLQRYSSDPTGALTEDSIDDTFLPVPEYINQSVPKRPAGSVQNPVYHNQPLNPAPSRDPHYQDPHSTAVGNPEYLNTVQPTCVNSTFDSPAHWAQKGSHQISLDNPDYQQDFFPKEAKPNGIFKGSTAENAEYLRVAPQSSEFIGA
intracellular phosphorylation of EGFR (Tyr1068) in PC-9 cells, sequence (P00533 with tags, fused parts or gaps DEL746-750): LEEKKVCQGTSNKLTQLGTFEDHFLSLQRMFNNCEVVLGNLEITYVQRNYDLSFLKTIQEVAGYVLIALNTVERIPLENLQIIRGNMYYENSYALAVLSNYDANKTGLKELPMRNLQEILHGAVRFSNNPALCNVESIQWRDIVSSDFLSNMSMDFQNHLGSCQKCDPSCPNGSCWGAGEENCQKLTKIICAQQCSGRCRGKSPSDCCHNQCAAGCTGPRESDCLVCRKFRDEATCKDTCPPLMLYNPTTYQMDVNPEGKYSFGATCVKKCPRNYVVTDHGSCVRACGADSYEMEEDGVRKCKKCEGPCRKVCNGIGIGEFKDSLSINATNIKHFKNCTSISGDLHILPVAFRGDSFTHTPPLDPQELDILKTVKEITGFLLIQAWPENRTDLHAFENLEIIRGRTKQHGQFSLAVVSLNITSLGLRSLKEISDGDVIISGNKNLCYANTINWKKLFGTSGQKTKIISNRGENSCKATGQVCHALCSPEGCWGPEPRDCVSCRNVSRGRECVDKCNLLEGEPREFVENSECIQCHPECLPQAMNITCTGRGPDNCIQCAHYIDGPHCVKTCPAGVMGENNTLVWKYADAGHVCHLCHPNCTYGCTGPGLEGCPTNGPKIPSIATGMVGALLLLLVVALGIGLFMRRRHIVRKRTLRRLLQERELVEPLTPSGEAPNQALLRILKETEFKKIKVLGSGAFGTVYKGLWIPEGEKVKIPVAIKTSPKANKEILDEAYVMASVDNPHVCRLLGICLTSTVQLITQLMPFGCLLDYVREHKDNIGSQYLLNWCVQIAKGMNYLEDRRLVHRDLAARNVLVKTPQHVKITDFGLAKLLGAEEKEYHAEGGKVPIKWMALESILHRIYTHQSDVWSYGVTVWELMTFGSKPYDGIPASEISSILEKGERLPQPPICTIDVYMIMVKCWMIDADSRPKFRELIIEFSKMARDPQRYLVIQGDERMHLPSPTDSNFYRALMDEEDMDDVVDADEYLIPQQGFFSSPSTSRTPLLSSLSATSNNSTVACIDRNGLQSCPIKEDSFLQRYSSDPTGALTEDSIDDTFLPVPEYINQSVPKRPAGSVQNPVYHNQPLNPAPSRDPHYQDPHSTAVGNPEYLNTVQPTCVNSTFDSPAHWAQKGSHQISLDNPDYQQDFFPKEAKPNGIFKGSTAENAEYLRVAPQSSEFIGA
T2 sequence (P00533 25-1210 L858R): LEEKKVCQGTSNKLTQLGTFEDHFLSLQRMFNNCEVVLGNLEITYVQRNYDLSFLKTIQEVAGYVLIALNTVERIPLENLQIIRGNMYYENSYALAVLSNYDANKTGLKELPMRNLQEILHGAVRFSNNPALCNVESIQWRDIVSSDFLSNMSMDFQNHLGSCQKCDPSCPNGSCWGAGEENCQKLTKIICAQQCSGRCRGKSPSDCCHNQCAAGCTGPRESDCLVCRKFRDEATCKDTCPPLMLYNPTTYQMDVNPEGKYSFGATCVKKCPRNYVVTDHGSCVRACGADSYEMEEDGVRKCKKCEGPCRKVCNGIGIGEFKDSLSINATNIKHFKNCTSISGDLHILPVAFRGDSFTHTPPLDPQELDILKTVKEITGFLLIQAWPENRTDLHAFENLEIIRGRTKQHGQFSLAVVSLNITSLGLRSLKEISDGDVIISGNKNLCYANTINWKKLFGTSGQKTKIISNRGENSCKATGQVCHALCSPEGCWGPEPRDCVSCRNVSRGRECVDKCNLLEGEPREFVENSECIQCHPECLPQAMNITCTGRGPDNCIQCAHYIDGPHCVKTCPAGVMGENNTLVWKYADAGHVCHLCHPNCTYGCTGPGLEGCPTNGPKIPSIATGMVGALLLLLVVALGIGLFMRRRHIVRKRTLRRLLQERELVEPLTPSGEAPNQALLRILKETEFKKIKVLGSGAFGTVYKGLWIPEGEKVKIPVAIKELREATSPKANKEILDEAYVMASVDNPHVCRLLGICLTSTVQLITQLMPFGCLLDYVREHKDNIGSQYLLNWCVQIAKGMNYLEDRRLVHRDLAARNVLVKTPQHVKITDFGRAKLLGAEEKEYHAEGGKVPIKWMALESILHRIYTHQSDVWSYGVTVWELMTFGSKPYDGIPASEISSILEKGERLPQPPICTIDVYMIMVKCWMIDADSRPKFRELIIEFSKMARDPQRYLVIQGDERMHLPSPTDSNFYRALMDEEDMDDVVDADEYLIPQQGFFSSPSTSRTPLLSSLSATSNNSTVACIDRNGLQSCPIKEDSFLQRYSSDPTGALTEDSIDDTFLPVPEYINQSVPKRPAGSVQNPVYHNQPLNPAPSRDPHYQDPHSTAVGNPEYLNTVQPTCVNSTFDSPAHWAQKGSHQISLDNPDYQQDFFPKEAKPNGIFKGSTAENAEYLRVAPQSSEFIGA

| IC50 (EGFR (d746-750)) [nM] | IC50 [1] [nM] | IC50 (EGFR L858R) [nM] | Structure (SMILES) |
| --- | --- | --- | --- |
| ≤ 10 | ≤ 10 | ≤ 10 | CC(C)Oc1cc(-c2cnn(C)c2)cc2ncnc(Nc3ccc4ncsc4c3)c12 [Example 405, N-(5-isopropoxy-7-(1-methyl-1H-pyrazol-4-yl)quinazolin-4-yl)benzo[d]thiazol-6-amine] |
| ≤ 10 | ≤ 10 | ≤ 10 | Cn1cc(-c2cc(OC3COC3)c3c(Nc4ccc5ncsc5c4)ncnc3c2)cn1 [Example 406, N-(7-(1-methyl-1H-pyrazol-4-yl)-5-(oxetan-3-yloxy)quinazolin-4-yl)benzo[d]thiazol-6-amine] |
| ≤ 10 | ≤ 10 | ≤ 10 | Cn1cc(-c2cc(O[C@@H]3CC[C@@H](O)C3)c3c(Nc4ccc5ncsc5c4)ncnc3c2)cn1 [Example 410, (1R,3R)-3-((4-(benzo[d]thiazol-6-ylamino)-7-(1-methyl-1H-pyrazol-4-yl)quinazolin-5-yl)oxy)cyclopentan-1-ol] |
| ≤ 10 | ≤ 10 | ≤ 10 | Cn1cc(-c2cc(O[C@@H]3CC[C@H](O)C3)c3c(Nc4ccc5ncsc5c4)ncnc3c2)cn1 [Example 411, (1S,3R)-3-((4-(benzo[d]thiazol-6-ylamino)-7-(1-methyl-1H-pyrazol-4-yl)quinazolin-5-yl)oxy)cyclopentan-1-ol] |
| ≤ 10 | 10.1 to 50 | 10.1 to 50 | Cn1cc(-c2cc(OC3CCN(C4CCOCC4)CC3)c3c(Nc4ccc5ncsc5c4)ncnc3c2)cn1 [Example 412, N-(7-(1-methyl-1H-pyrazol-4-yl)-5-((1-(tetrahydro-2H-pyran-4-yl)piperidin-4-yl)oxy)quinazolin-4-yl)benzo[d]thiazol-6-amine] |
| ≤ 10 | 10.1 to 50 | ≤ 10 | Cn1cc(-c2cc(OCC3CCOC3)c3c(Nc4ccc5ncsc5c4)ncnc3c2)cn1 (stereo not drawn) [Example 413, N-(7-(1-methyl-1H-pyrazol-4-yl)-5-((tetrahydrofuran-3-yl)methoxy)quinazolin-4-yl)benzo[d]thiazol-6-amine] |
| ≤ 10 | ≤ 10 | ≤ 10 | Cn1cc(-c2cc(OC3CCCOC3)c3c(Nc4ccc5ncsc5c4)ncnc3c2)cn1 (stereo not drawn) [Example 414, N-(7-(1-methyl-1H-pyrazol-4-yl)-5-((tetrahydro-2H-pyran-3-yl)oxy)quinazolin-4-yl)benzo[d]thiazol-6-amine] |
| ≤ 10 | 10.1 to 50 | ≤ 10 | Cn1cc(-c2cc(OC3CCOC3)c3c(Nc4ccc5ncsc5c4)ncnc3c2)cn1 (stereo not drawn) [Example 415, N-(7-(1-methyl-1H-pyrazol-4-yl)-5-((tetrahydrofuran-3-yl)oxy)quinazolin-4-yl)benzo[d]thiazol-6-amine] |
| ≤ 10 | 10.1 to 50 | 10.1 to 50 | CN1CCC(Oc2cc(-c3cnn(C)c3)cc3ncnc(Nc4ccc5scnc5c4)c23)CC1 [Example A03, N-(7-(1-methyl-1H-pyrazol-4-yl)-5-((1-methylpiperidin-4-yl)oxy)quinazolin-4-yl)benzo[d]thiazol-5-amine] |
| ≤ 10 | 10.1 to 50 | ≤ 10 | CN1CC[C@H](Oc2cc(-c3cnn(C)c3)cc3ncnc(Nc4ccc5ncsc5c4)c23)C[C@H]1CO [Example A07, ((2S,4S)-4-((4-(benzo[d]thiazol-6-ylamino)-7-(1-methyl-1H-pyrazol-4-yl)quinazolin-5-yl)oxy)-1-methylpiperidin-2-yl)methanol] |
| ≤ 10 | 10.1 to 50 | ≤ 10 | CN1CC[C@H](Oc2cc(-c3cnn(C)c3)cc3ncnc(Nc4ccc5ncsc5c4)c23)C[C@@H]1CO [Example A08, [(2R,4S)-4-({4-[(1,3-benzothiazol-6-yl)amino]-7-(1-methyl-1H-pyrazol-4-yl)quinazolin-5-yl}oxy)-1-methylpiperidin-2-yl]methanol] |
| ≤ 10 | ≤ 10 | ≤ 10 | Cn1cc(-c2cc(O[C@H]3CC[C@@H](N)CC3)c3c(Nc4ccc5ncsc5c4)ncnc3c2)cn1 [Example A09, N-(5-(((1s,4s)-4-aminocyclohexyl)oxy)-7-(1-methyl-1H-pyrazol-4-yl)quinazolin-4-yl)benzo[d]thiazol-6-amine] |

Continued, compound first:

| Structure (SMILES) | IC50 (EGFR (d746-750)) [nM] | IC50 [1] [nM] | IC50 (EGFR L858R) [nM] |
| --- | --- | --- | --- |
| COc1nn(C)cc1-c1cc(OC2CCN(CC(F)F)CC2)c2c(Nc3ccc4ncsc4c3)ncnc2c1 [Example 386, N-(5-((1-(2,2-difluoroethyl)piperidin-4-yl)oxy)-7-(3-methoxy-1-methyl-1H-pyrazol-4-yl)quinazolin-4-yl)benzo[d]thiazol-6-amine] | ≤ 10 | ≤ 10 | ≤ 10 |
| COc1cc2ncnc(Nc3ccc4ncsc4c3)c2cc1N[C@H]1CCN(C)C[C@@H]1F [Example 393, N4-(benzo[d]thiazol-6-yl)-N6-((3S,4S)-3-fluoro-1-methylpiperidin-4-yl)-7-methoxyquinazoline-4,6-diamine] | ≤ 10 | ≤ 10 | ≤ 10 |
| C[C@H](CN1CCC1)Oc1cc(-c2cnn(C)c2)cc2ncnc(Nc3ccc4ncsc4c3)c12 [Example 394, (R)-N-(5-((1-(azetidin-1-yl)propan-2-yl)oxy)-7-(1-methyl-1H-pyrazol-4-yl)quinazolin-4-yl)benzo[d]thiazol-6-amine] | ≤ 10 | ≤ 10 | ≤ 10 |
| C[C@H](CN1CCOCC1)Oc1cc(-c2cnn(C)c2)cc2ncnc(Nc3ccc4ncsc4c3)c12 [Example 395, (R)-N-(7-(1-methyl-1H-pyrazol-4-yl)-5-((1-morpholinopropan-2-yl)oxy)quinazolin-4-yl)benzo[d]thiazol-6-amine] | ≤ 10 | 10.1 to 50 | ≤ 10 |
| CNC[C@@H](C)Oc1cc(-c2cnn(C)c2)cc2ncnc(Nc3ccc4ncsc4c3)c12 [Example 396, (R)-N-(7-(1-methyl-1H-pyrazol-4-yl)-5-((1-(methylamino)propan-2-yl)oxy)quinazolin-4-yl)benzo[d]thiazol-6-amine] | ≤ 10 | ≤ 10 | 10.1 to 50 |
| CCN1CCN(C(=O)Nc2cc3c(Nc4ccc5ncsc5c4)ncnc3cc2-c2ccn(C)n2)[C@H](C)C1 [Example 397, (R)-N-(4-(benzo[d]thiazol-6-ylamino)-7-(1-methyl-1H-pyrazol-3-yl)quinazolin-6-yl)-4-ethyl-2-methylpiperazine-1-carboxamide] | ≤ 10 | ≤ 10 | ≤ 10 |
| CCN1CCN(C(=O)Nc2cc3c(Nc4ccc5ncsc5c4F)ncnc3cc2-c2ccn(C)n2)[C@@H](C)C1 [Example 398, (S)-4-ethyl-N-(4-((7-fluorobenzo[d]thiazol-6-yl)amino)-7-(1-methyl-1H-pyrazol-3-yl)quinazolin-6-yl)-2-methylpiperazine-1-carboxamide] | ≤ 10 | ≤ 10 | ≤ 10 |
| C[C@H]1CN(C)CCN1C(=O)Nc1cc2c(Nc3ccc4ncsc4c3)ncnc2cc1-c1ccn(C)n1 [Example 399, (S)-N-(4-(benzo[d]thiazol-6-ylamino)-7-(1-methyl-1H-pyrazol-3-yl)quinazolin-6-yl)-2,4-dimethylpiperazine-1-carboxamide] | ≤ 10 | ≤ 10 | ≤ 10 |
| COc1cc2ncnc(Nc3ccc4ncsc4c3)c2cc1NC(=O)CCN1CCCCC1 [Example 400, N-(4-(benzo[d]thiazol-6-ylamino)-7-methoxyquinazolin-6-yl)-3-(piperidin-1-yl)propanamide] | ≤ 10 | 10.1 to 50 | 10.1 to 50 |
| COc1cc2ncnc(Nc3ccc4ncsc4c3)c2cc1NC(=O)C1CCCN(C)C1 (stereo not drawn) [Example 401, N-(4-(benzo[d]thiazol-6-ylamino)-7-methoxyquinazolin-6-yl)-1-methylpiperidine-3-carboxamide] | 10.1 to 50 | 10.1 to 50 | 10.1 to 50 |
| COc1cc2ncnc(Nc3ccc4ncsc4c3)c2cc1NC(=O)C1CN(C)C1 [Example 402, N-(4-(benzo[d]thiazol-6-ylamino)-7-methoxyquinazolin-6-yl)-1-methylazetidine-3-carboxamide] | 10.1 to 50 | 10.1 to 50 | > 50.1 |
| Cn1cc(-c2cc(OCC#N)c3c(Nc4ccc5ncsc5c4)ncnc3c2)cn1 [Example 407, 2-((4-(benzo[d]thiazol-6-ylamino)-7-(1-methyl-1H-pyrazol-4-yl)quinazolin-5-yl)oxy)acetonitrile] | ≤ 10 | 10.1 to 50 | ≤ 10 |
| Cn1cc(-c2cc(OCCN3CCC3)c3c(Nc4ccc5ncsc5c4)ncnc3c2)cn1 [Example 409, N-(5-(2-(azetidin-1-yl)ethoxy)-7-(1-methyl-1H-pyrazol-4-yl)quinazolin-4-yl)benzo[d]thiazol-6-amine] | ≤ 10 | 10.1 to 50 | 10.1 to 50 |
| CN1CCN(CCOc2cc(OC3CCOCC3)c3c(Nc4ccc5ncsc5c4)ncnc3c2)CC1 [Example A16, N-(7-(2-(4-methylpiperazin-1-yl)ethoxy)-5-((tetrahydro-2H-pyran-4-yl)oxy)quinazolin-4-yl)benzo[d]thiazol-6-amine] | ≤ 10 | 10.1 to 50 | 10.1 to 50 |
